Here are results for three molecules from paper PMC11345829, “Discovery of Potent Isoquinolinequinone N-Oxides to Overcome Cancer Multidrug Resistance” (Journal of Medicinal Chemistry, 2024).

The subject of series [1] is NCI60 tumor cell line panel. Also noted: method as in PMID 31894828. Conditions: against 53 human tumor cell lines; cited from earlier work.
A further series relates to A549. As to the kind of experiment: SRB cell growth inhibition assay. The format is cell-based. As to conditions: Homo sapiens, 48 h, NSCLC, read-out: GI50 ± SEM A549. As for the experimental part: (§1) Two pairs of drug-sensitive and multidrug-resistant (MDR) cell lines from human nonsmall cell lung cancer (NSCLC), NCI-H460 and NCI-H460/R, and colorectal cancer, DLD1 and DLD1-TxR, kindly provided by Dr M. Pešić (Belgrade, Serbia), were used to evaluate the growth inhibition potential of the compounds 1, 2, 3, 4, 5, 20, 23, 24, an 25.[76],[77] Additionally, growth inhibition assays were performed with compound 25 on two other NSCLC cell lines, A549 and NCI-H322, obtained from the American Type Culture Collection (ATCC) and the European Collection of Authenticated Cell Cultures, respectively. The A549 cell line was maintained in Dulbecco’s Modified Eagle Medium (DMEM) supplemented with 4.5 g/L Glucose with UltraGlutamine with sodium pyruvate (Lonza, Basel Stücki, Switzerland), enriched with 10% fetal bovine serum (FBS; Biowest, Nuaillé, France). […]
(§2) Cells were seeded at a previously determined optimal cell concentration (5.0 × 10^4 cells/mL for NSCLC cells and the nontumorigenic MRC-5 cell line and 1.0 × 10^5 cells/mL for colorectal cancer cells) and incubated at 37 °C for 24 h. […] Absorbance was measured at 510 nm in a multiplate reader (Synergy Mx, Biotek Instruments Inc., Winooski, Vermont, USA) using the Gen5 software (Biotek Instruments Inc.).

In a further series the test system is NCI-H322. As to the kind of experiment: SRB cell growth inhibition assay. The class given is cell-based. Conditions: Homo sapiens, 48 h, NSCLC, read-out: GI50 ± SEM NCI-H322. As for the experimental part: as §1, §2
For another series, the system named is MRC-5. As to the kind of experiment: SRB cytotoxicity assay, nontumorigenic lung fibroblasts. The format is cell-based, human. Conditions: 48 h. As for the experimental part:
(§3) Selectivity over nontumorigenic cells is a key requirement in cancer therapy so the cytotoxicity of 25 against nontumorigenic lung fibroblast (MRC-5) and breast cell lines (MCF12A) was evaluated with the SRB assay.
Figure 5 Cytotoxic effect of compound 25 on the nontumorigenic MRC-5 cell line (fibroblasts isolated from the lung tissue), analyzed by the SRB assay. Concentration−response curves of MRC-5 cells exposed to compound 25 for 48 h. Results are presented as percentage (%) of cell growth compared to control cells (vehicle, DMSO). For comparison purposes, the GI50 concentration of compound 25 in the NCI-H460 cell line is represented by the vertical dotted line. Results are the mean ± SEM from at least three independent experiments.
Cells were seeded at a previously determined optimal cell concentration (5.0 × 10^4 cells/mL for NSCLC cells and the nontumorigenic MRC-5 cell line and 1.0 × 10^5 cells/mL for colorectal cancer cells) and incubated at 37 °C for 24 h. […] The SRB assay was performed as previously described.[78],[79] […] Absorbance was measured at 510 nm in a multiplate reader (Synergy Mx, Biotek Instruments Inc., Winooski, Vermont, USA) using the Gen5 software (Biotek Instruments Inc.).
In general terms: Sulforhodamine B stains cellular protein and so reports cell mass.

The subject of the next series is MCF12A. As to the kind of experiment: SRB cytotoxicity assay, nontumorigenic breast cells. The format is cell-based, human. Conditions: 48 h at GI50 concentration obtained on NCI-H460 cells. As for the experimental part:
as §3
Compound 25 was also tested on the nontumorigenic MCF-12A human breast epithelial cell line. […] Following this treatment, the SRB assay was performed as described above.
S3.5 Effect of 25 on the non-tumorigenic MCF12A cell line (Figure S66)
Figure S66 Cytotoxic effect of compound 25 on the non-tumorigenic MCF12A cell line, analysed by the
obtained in the NCI-H460 and NCI-H460/R pair of counterpart cell lines. Results are presented as the
% of cell growth relative to the control cells (treated with the compound vehicle, DMSO at the % used
Data are expressed as mean ± SEM from 3 independent experiments.
(1 picture or pasted object on this page, not shown here)

Series [2] has as its system NCI-H460 cells. Description: ROS accumulation, CM-H2DCFDA flow cytometry. The class given is cell-based, human. Conditions: 6 h; 0.7, 1 and 5 μM; concentration dependent. From the text:
To uncover the mechanisms of action of 25, we analyzed the cellular accumulation of ROS by flow cytometry, using a fluorescent marker of ROS, 5-(and-6)-chloromethyl-2′,7′-dichlorodihydrofluorescein diacetate acetyl ester (CM-H2DCFDA). […] Importantly, this effect was concentration dependent.
Figure 6 Effect of the compound 25 on ROS accumulation in NCI-H460 cells. […] Results are presented as mean fluorescence values, normalized to the blank. Data are expressed as mean ± SEM from at least 3 independent experiments.
To study the effect of compound 25 on ROS levels, 5-(and-6)-chloromethyl-2′,7′-dichlorodihydrofluorescein diacetate, acetyl ester (CM-H2DCFDA; Invitrogen) analysis by flow cytometry was performed in the drug-sensitive cells. NCI-H460 cells (1.5 × 10^5/mL) were plated in 6-well plates for 24 h. […] Harvested cells were subsequently washed twice in phosphate-buffered saline (PBS) and the CM-H2DCFDA fluorescence was analyzed in a BD AccuriTM flow cytometer (BD Biosciences, San Jose, California, USA). Mean fluorescence intensity was calculated after correction for autofluorescence.
(Flow cytometry measures light scatter and fluorescence of single cells or particles in a stream.)

Series [3] has as its system NCI-H460 cells. As to the kind of experiment: Annexin V-FITC/PI cell death assay. The class given is cell-based, human. Conditions: 48 h; 0.35 and 0.7 μM. As for the experimental part: The effect of compound 25 on the levels of apoptosis and necrosis was evaluated using annexin V-FITC/PI labeling followed by flow cytometry analysis.
Figure 9 Effect of compound 25 on the levels of death of NCI-H460 cells, analyzed by flow cytometry (annexin V−PI assay). […] Results are the mean ± SEM from at least 3 independent experiments. * p ≤ 0.05, when comparing DMSO vs compound treatment.
Analysis of cell death was performed using the Annexin V-FITC apoptosis detection kit (eBioscience, Thermo Fisher Scientific). […] Exposure to 5% ethanol for 1 h was used as a positive control for necrosis. Collected cells were resuspended in the binding buffer solution and incubated with the Annexin V-FITC conjugate for 10 min at RT, in the dark. Afterward, PI was added, and samples were analyzed using the BD Accuri C6 flow cytometer, where at least 10 000 events per sample were plotted. Data analysis was carried out using the BD Accuri C6 Software.

Another series has as its system NCI-H460 spheroid. Also noted: method as in PMID 34915071. As to conditions: 3D; cited from earlier work.

The GI50 is the concentration that inhibits growth by half. As for `COC(=O)c1c2c(c(C)[n+]([O-])c1C)C(=O)C=C(NCc1ccccc1)C2=O` [Compound 2], the 50% growth inhibitory concentration (GI50) in series [1] is 910 nM.
For `COC(=O)c1c2c(c[n+]([O-])c1C)C(=O)C=C(NCc1ccccc1)C2=O` [Compound 25], the 50% growth inhibitory concentration (GI50) with A549 turned out to be 220 ± 20 nM; in the series with NCI-H322, 450 ± 60 nM; with MRC-5 (Homo sapiens, MRC5, SRB, nontumorigenic lung fibroblasts, ±0.075 SEM), 1530 nM. Besides, in the series on MRC-5 (below 0.5 μM), the “effect on MRC-5 growth at low concentrations” value is “does not reduce the growth of this cell line”. Moreover, the “effect on MCF12A growth” value with MCF12A was “did not cause significant alterations in the growth of these nontumorigenic cells”. The “ROS accumulation (fluorescence intensity)” value with NCI-H460 cells [2] is “statistically significant increase on fluorescence intensity”. Further, the “percentage of dead cells (apoptosis/necrosis)” value in the series with NCI-H460 cells [3] is listed as “did not cause an increase in the percentage of dead cells”.
For the molecule `COc1cccc2c1C(=O)c1c(O)c3c(c(O)c1C2=O)C[C@@](O)(C(=O)CO)C[C@@H]3O[C@H]1C[C@H](N)[C@H](O)[C@H](C)O1` [doxorubicin, reference compound], the “concentration reducing NCI-H460 spheroid viability” value in the series on NCI-H460 spheroid is 20 µM.
